Consider six molecules from ChEMBL document CHEMBL1909046, “DrugMatrix in vitro pharmacology data”.

Sequence of Cytochrome P450 3A4 (P08684 whole entry): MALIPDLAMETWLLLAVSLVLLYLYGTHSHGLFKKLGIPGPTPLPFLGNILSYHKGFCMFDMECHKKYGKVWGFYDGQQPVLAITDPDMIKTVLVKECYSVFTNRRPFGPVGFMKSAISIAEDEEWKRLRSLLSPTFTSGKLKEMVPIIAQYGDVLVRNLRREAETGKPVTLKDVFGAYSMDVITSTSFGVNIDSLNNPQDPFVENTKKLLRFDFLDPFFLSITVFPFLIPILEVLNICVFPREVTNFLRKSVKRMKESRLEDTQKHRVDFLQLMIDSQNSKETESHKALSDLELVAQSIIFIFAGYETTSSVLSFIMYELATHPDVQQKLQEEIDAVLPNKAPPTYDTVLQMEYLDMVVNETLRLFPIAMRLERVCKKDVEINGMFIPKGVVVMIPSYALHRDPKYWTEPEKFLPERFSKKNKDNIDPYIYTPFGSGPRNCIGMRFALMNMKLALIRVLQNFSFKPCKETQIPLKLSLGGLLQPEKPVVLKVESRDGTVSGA

The target of the first data set is T1, Cytochrome P450 1A2 (Homo sapiens, UniProt P05177). Further: in other assays of this panel Not Active means under 50% inhibition at 10 µM.
T1 sequence (P05177 whole entry): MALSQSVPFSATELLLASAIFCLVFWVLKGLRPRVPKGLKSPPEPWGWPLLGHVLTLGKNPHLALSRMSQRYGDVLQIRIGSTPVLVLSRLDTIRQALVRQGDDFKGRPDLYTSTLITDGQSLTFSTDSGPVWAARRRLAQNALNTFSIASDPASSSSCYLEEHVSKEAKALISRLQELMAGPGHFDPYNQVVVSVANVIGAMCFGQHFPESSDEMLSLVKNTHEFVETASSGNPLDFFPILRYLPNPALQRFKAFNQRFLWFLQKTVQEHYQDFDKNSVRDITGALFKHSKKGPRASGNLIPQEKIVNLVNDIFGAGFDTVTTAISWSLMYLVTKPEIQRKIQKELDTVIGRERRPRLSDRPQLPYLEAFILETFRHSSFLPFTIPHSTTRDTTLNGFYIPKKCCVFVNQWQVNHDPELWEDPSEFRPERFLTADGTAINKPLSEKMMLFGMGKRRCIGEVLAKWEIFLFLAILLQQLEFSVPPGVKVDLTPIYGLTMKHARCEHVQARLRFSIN
Test: not given
To be noted: bti-tn-5b1-4.
For the molecule `C=C(C)[C@H]1Cc2c(ccc3c2O[C@@H]2COc4cc(OC)c(OC)cc4[C@@H]2C3=O)O1` [ROTENONE], the IC50 result was “Not Active” and the Ki entry is “Not Active”.

In the case of `C#CCN(C)[C@H](C)Cc1ccccc1` [SELEGILINE], the IC50 result is given as “Not Active” and the Ki entry was “Not Active”.

As to `Nc1ccc(S(=O)(=O)Nc2ncccn2)cc1` [SULFADIAZINE], the IC50 result was “Not Active” and the Ki result was “Not Active”.

Take `COc1ncnc(NS(=O)(=O)c2ccc(N)cc2)c1OC` [SULFADOXINE]: the IC50 result was “Not Active” and the Ki entry is listed as “Not Active”.

Consider `Nc1ccc(S(=O)(=O)Nc2nccs2)cc1` [SULFATHIAZOLE], for which the IC50 result is listed as “Not Active” and the Ki entry is given as “Not Active”.

For the molecule `C[C@]12CC[C@H]3[C@@H](CCC4=CC(=O)CC[C@@]43C)[C@@H]1CC[C@@H]2O` [TESTOSTERONE], the IC50 result was “Not Active” and the Ki entry is recorded as “Not Active”.

The target in the next data set is cGMP-specific 3',5'-cyclic phosphodiesterase (Homo sapiens, UniProt O76074). In words: DRUGMATRIX: Phosphodiesterase PDE5 enzyme inhibition (substrate: [3H]cGMP + cGMP). Type of data set: tissue-based. To be noted: platelet; Not Active = under 50% inhibition at 10 µM.
Consider `C=C(C)[C@H]1Cc2c(ccc3c2O[C@@H]2COc4cc(OC)c(OC)cc4[C@@H]2C3=O)O1` [ROTENONE], for which the IC50 entry is on record as “Not Active”.

Regarding `C#CCN(C)[C@H](C)Cc1ccccc1` [SELEGILINE], the IC50 entry is listed as “Not Active”.

Take `Nc1ccc(S(=O)(=O)Nc2ncccn2)cc1` [SULFADIAZINE]: the IC50 result is reported as “Not Active”.

Take `COc1ncnc(NS(=O)(=O)c2ccc(N)cc2)c1OC` [SULFADOXINE]: the IC50 entry is listed as “Not Active”.

Consider `Nc1ccc(S(=O)(=O)Nc2nccs2)cc1` [SULFATHIAZOLE], for which the IC50 entry is on record as “Not Active”.

As to `C[C@]12CC[C@H]3[C@@H](CCC4=CC(=O)CC[C@@]43C)[C@@H]1CC[C@@H]2O` [TESTOSTERONE], the IC50 result is listed as “Not Active”.

Test system in the next data set: not listed separately
Put plainly: DRUGMATRIX: ATPase, Na+/K+ enzyme inhibition (substrate: ATP). Type of data set: tissue-based, Sus scrofa, Heart. To be noted: Not Active = under 50% inhibition at 10 µM.
On to `C=C(C)[C@H]1Cc2c(ccc3c2O[C@@H]2COc4cc(OC)c(OC)cc4[C@@H]2C3=O)O1` [ROTENONE], for which the IC50 entry is reported as “Not Active” and the Ki entry is “Not Active”.

With `C#CCN(C)[C@H](C)Cc1ccccc1` [SELEGILINE], the IC50 result is reported as “Not Active” and the Ki entry is reported as “Not Active”.

Consider `Nc1ccc(S(=O)(=O)Nc2ncccn2)cc1` [SULFADIAZINE], for which the IC50 entry is listed as “Not Active” and the Ki result is on record as “Not Active”.

As to `COc1ncnc(NS(=O)(=O)c2ccc(N)cc2)c1OC` [SULFADOXINE], the IC50 entry is given as “Not Active” and the Ki result is “Not Active”.

In the case of `Nc1ccc(S(=O)(=O)Nc2nccs2)cc1` [SULFATHIAZOLE], the IC50 entry is on record as “Not Active” and the Ki entry is reported as “Not Active”.

Consider `C[C@]12CC[C@H]3[C@@H](CCC4=CC(=O)CC[C@@]43C)[C@@H]1CC[C@@H]2O` [TESTOSTERONE], for which the IC50 result is listed as “Not Active” and the Ki result was “Not Active”.

Another data set has as its target Cytochrome P450 3A4 (Homo sapiens, UniProt P08684). Further: in other assays of this panel Not Active means under 50% inhibition at 10 µM.
Test: not given
The conditions noted are these: bti-tn-5b1-4.
As for `C=C(C)[C@H]1Cc2c(ccc3c2O[C@@H]2COc4cc(OC)c(OC)cc4[C@@H]2C3=O)O1` [ROTENONE], the IC50 entry was “Not Active” and the Ki result was “Not Active”.

Consider `C#CCN(C)[C@H](C)Cc1ccccc1` [SELEGILINE], for which the IC50 result was “Not Active” and the Ki result is reported as “Not Active”.

Regarding `Nc1ccc(S(=O)(=O)Nc2ncccn2)cc1` [SULFADIAZINE], the IC50 entry was “Not Active” and the Ki entry is reported as “Not Active”.

`COc1ncnc(NS(=O)(=O)c2ccc(N)cc2)c1OC` [SULFADOXINE]: the IC50 result is listed as “Not Active” and the Ki entry is recorded as “Not Active”.

In the case of `Nc1ccc(S(=O)(=O)Nc2nccs2)cc1` [SULFATHIAZOLE], the IC50 result was “Not Active” and the Ki result is “Not Active”.

As for `C[C@]12CC[C@H]3[C@@H](CCC4=CC(=O)CC[C@@]43C)[C@@H]1CC[C@@H]2O` [TESTOSTERONE], the IC50 result is “Not Active” and the Ki entry is listed as “Not Active”.

Another data set deals with D(1A) dopamine receptor (Homo sapiens, UniProt P21728). In words: DRUGMATRIX: Dopamine D1 radioligand binding (ligand: [3H] SCH-23390). In kind it is cell membranes, CHO, Membrane. To be noted: cho; Not Active = under 50% inhibition at 10 µM.
Sequence of D(1A) dopamine receptor (P21728 whole entry): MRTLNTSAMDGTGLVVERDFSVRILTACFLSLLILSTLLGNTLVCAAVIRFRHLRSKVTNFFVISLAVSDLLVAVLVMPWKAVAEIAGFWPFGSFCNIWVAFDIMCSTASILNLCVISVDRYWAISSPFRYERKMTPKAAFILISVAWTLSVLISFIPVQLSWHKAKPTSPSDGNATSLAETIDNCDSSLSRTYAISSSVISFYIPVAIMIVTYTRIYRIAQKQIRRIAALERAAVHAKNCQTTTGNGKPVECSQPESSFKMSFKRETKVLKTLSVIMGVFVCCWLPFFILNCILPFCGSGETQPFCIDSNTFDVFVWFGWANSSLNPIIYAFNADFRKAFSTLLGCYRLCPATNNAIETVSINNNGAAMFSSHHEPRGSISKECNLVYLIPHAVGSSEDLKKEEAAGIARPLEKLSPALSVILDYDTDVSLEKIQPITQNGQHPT
As to `C=C(C)[C@H]1Cc2c(ccc3c2O[C@@H]2COc4cc(OC)c(OC)cc4[C@@H]2C3=O)O1` [ROTENONE], the IC50 entry is recorded as “Not Active”.

As for `C#CCN(C)[C@H](C)Cc1ccccc1` [SELEGILINE], the IC50 entry was “Not Active”.

For the molecule `Nc1ccc(S(=O)(=O)Nc2ncccn2)cc1` [SULFADIAZINE], the IC50 result is on record as “Not Active”.

On to `COc1ncnc(NS(=O)(=O)c2ccc(N)cc2)c1OC` [SULFADOXINE], for which the IC50 entry is “Not Active”.

Turning to `Nc1ccc(S(=O)(=O)Nc2nccs2)cc1` [SULFATHIAZOLE], the IC50 result is recorded as “Not Active”.

Take `C[C@]12CC[C@H]3[C@@H](CCC4=CC(=O)CC[C@@]43C)[C@@H]1CC[C@@H]2O` [TESTOSTERONE]: the IC50 entry was “Not Active”.

Another data set deals with Prostaglandin G/H synthase 1 (Homo sapiens, UniProt P23219). Put plainly: biochemical. To be noted: platelet. In kind it is tissue-based, Platelet.
Sequence of Prostaglandin G/H synthase 1 (P23219 whole entry): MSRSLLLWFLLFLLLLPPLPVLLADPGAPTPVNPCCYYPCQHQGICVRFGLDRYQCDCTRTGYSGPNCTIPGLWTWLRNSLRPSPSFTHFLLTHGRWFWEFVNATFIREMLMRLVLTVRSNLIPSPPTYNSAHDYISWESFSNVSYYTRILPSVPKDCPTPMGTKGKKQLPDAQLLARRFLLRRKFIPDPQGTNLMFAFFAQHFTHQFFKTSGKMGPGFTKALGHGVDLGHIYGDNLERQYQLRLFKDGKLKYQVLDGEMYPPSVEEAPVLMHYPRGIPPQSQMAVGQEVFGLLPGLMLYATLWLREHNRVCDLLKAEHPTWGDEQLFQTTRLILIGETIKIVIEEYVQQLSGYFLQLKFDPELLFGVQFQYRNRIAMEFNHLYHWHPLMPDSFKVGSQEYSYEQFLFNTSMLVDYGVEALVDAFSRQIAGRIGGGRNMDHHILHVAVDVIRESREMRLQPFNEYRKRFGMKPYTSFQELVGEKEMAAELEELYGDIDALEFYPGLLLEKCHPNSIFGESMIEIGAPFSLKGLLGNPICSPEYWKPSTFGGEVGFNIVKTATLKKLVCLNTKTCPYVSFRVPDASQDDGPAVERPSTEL
For `C=C(C)[C@H]1Cc2c(ccc3c2O[C@@H]2COc4cc(OC)c(OC)cc4[C@@H]2C3=O)O1` [ROTENONE], the IC50 result is recorded as “Not Active”.

Take `C#CCN(C)[C@H](C)Cc1ccccc1` [SELEGILINE]: the IC50 entry is listed as “Not Active”.

`Nc1ccc(S(=O)(=O)Nc2ncccn2)cc1` [SULFADIAZINE]: the IC50 result is “Not Active”.

Consider `COc1ncnc(NS(=O)(=O)c2ccc(N)cc2)c1OC` [SULFADOXINE], for which the IC50 entry was “Not Active”.

For the molecule `Nc1ccc(S(=O)(=O)Nc2nccs2)cc1` [SULFATHIAZOLE], the IC50 entry is “Not Active”.

On to `C[C@]12CC[C@H]3[C@@H](CCC4=CC(=O)CC[C@@]43C)[C@@H]1CC[C@@H]2O` [TESTOSTERONE], for which the IC50 entry was “Not Active”.

Test system in the next data set: not listed separately
Put plainly: DRUGMATRIX: GABAA, Chloride Channel, TBOB radioligand binding (ligand: [3H] TBOB). In kind it is cell membranes, Rattus norvegicus, Wistar, Cerebral cortex, Membrane. The conditions noted are these: Not Active = under 50% inhibition at 10 µM.
Take `C=C(C)[C@H]1Cc2c(ccc3c2O[C@@H]2COc4cc(OC)c(OC)cc4[C@@H]2C3=O)O1` [ROTENONE]: the IC50 entry is “Not Active” and the Ki result is on record as “Not Active”.

In the case of `C#CCN(C)[C@H](C)Cc1ccccc1` [SELEGILINE], the IC50 entry was “Not Active” and the Ki result is “Not Active”.

Regarding `Nc1ccc(S(=O)(=O)Nc2ncccn2)cc1` [SULFADIAZINE], the IC50 result was “Not Active” and the Ki entry is “Not Active”.

Turning to `COc1ncnc(NS(=O)(=O)c2ccc(N)cc2)c1OC` [SULFADOXINE], the IC50 entry is reported as “Not Active” and the Ki result is “Not Active”.

With `Nc1ccc(S(=O)(=O)Nc2nccs2)cc1` [SULFATHIAZOLE], the IC50 entry is “Not Active” and the Ki entry was “Not Active”.

With `C[C@]12CC[C@H]3[C@@H](CCC4=CC(=O)CC[C@@]43C)[C@@H]1CC[C@@H]2O` [TESTOSTERONE], the IC50 entry is recorded as “Not Active” and the Ki result is reported as “Not Active”.

Test system in a further data set: not listed separately
Put plainly: DRUGMATRIX: Nicotinic Acetylcholine radioligand binding (ligand: [125I] Epibatidine). Type of data set: cell membranes, Membrane. The conditions noted are these: imr-32; Not Active = under 50% inhibition at 10 µM.
Take `C=C(C)[C@H]1Cc2c(ccc3c2O[C@@H]2COc4cc(OC)c(OC)cc4[C@@H]2C3=O)O1` [ROTENONE]: the IC50 result is on record as “Not Active” and the Ki entry is given as “Not Active”.

As for `C#CCN(C)[C@H](C)Cc1ccccc1` [SELEGILINE], the IC50 entry is given as “Not Active” and the Ki result is recorded as “Not Active”.

Turning to `Nc1ccc(S(=O)(=O)Nc2ncccn2)cc1` [SULFADIAZINE], the IC50 entry is “Not Active” and the Ki entry is “Not Active”.

Consider `COc1ncnc(NS(=O)(=O)c2ccc(N)cc2)c1OC` [SULFADOXINE], for which the IC50 result was “Not Active” and the Ki entry is recorded as “Not Active”.

On to `Nc1ccc(S(=O)(=O)Nc2nccs2)cc1` [SULFATHIAZOLE], for which the IC50 result is given as “Not Active” and the Ki result was “Not Active”.

Take `C[C@]12CC[C@H]3[C@@H](CCC4=CC(=O)CC[C@@]43C)[C@@H]1CC[C@@H]2O` [TESTOSTERONE]: the IC50 result is reported as “Not Active” and the Ki result was “Not Active”.

The target of a further data set is Insulin receptor (Rattus norvegicus, UniProt P15127). Further: in other assays of this panel Not Active means under 50% inhibition at 10 µM.
Sequence of Insulin receptor (P15127 27-759 limits assumed): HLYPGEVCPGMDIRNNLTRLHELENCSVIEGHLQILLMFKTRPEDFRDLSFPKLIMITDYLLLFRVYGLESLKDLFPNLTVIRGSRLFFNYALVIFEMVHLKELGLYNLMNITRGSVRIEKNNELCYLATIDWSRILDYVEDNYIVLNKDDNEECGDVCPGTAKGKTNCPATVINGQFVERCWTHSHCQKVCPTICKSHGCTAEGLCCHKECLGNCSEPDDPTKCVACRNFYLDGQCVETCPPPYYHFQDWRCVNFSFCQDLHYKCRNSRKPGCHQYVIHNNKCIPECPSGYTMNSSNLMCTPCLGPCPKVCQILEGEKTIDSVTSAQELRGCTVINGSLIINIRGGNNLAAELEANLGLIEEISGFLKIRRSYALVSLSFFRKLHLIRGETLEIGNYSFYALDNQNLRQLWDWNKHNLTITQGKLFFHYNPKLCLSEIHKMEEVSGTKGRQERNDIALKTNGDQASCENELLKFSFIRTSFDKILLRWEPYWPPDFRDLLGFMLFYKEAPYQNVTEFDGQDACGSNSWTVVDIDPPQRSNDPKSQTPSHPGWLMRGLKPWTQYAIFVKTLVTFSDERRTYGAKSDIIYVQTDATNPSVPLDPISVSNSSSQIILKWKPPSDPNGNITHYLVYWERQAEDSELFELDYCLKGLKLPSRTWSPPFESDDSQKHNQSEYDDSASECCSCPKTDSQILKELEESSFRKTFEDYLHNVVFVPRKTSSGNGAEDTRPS
Sequence of Insulin receptor (P15127 764-1383 limits assumed): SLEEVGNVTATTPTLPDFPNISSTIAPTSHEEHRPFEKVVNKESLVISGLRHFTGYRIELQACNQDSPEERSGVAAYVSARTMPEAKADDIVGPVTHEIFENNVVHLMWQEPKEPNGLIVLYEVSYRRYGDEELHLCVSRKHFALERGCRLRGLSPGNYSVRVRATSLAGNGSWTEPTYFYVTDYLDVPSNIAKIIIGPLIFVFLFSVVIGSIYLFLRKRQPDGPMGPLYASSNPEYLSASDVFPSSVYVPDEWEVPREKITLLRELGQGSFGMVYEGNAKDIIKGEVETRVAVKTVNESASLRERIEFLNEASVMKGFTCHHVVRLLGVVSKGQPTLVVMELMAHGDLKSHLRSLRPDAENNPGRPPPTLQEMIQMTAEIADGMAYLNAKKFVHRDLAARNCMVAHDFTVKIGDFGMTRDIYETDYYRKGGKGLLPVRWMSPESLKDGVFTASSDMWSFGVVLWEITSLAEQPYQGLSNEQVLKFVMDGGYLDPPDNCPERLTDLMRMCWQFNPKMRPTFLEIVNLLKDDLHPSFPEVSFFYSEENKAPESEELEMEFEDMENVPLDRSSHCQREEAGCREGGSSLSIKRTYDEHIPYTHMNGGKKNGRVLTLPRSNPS
Test: not given
Type of data set: cell membranes, Wistar, Liver, Membrane.
Conditions: not given
On to `C=C(C)[C@H]1Cc2c(ccc3c2O[C@@H]2COc4cc(OC)c(OC)cc4[C@@H]2C3=O)O1` [ROTENONE], for which the IC50 result is “Not Active”.

Turning to `C#CCN(C)[C@H](C)Cc1ccccc1` [SELEGILINE], the IC50 result is on record as “Not Active”.

For `Nc1ccc(S(=O)(=O)Nc2ncccn2)cc1` [SULFADIAZINE], the IC50 result is given as “Not Active”.

Regarding `COc1ncnc(NS(=O)(=O)c2ccc(N)cc2)c1OC` [SULFADOXINE], the IC50 result is listed as “Not Active”.

`Nc1ccc(S(=O)(=O)Nc2nccs2)cc1` [SULFATHIAZOLE]: the IC50 result is recorded as “Not Active”.

As for `C[C@]12CC[C@H]3[C@@H](CCC4=CC(=O)CC[C@@]43C)[C@@H]1CC[C@@H]2O` [TESTOSTERONE], the IC50 result was “Not Active”.
